From US20080125432A1 (Devgen NV, priority 2004, published 2008)

Tested on: isolated guinea pig right ventricular papillary muscle
Experiment: Ex-vivo organ study: functional refractory period in isolated guinea pig right ventricular papillary muscle
Conditions: conc 10^−5 mol/l
Source text: The compounds were checked for their effect on the force of contraction, stimulation threshold and for the Functional Refractory Period (FRP) in isolated rat left atria (Rat LA). Rat left atria functionally express the Kv4.3 ion channel, producing the Ito current of the action potential. […] The guinea pig action potential is dominated by hERG like ion channels for the refractory currents. Consequently, activity of hERG channels in vivo should be seen in GP pap muscle preparations.
Method: Rat LA (Same Method Applies to GP pap. Muscle)
Left atria were mounted vertically in a two-chambered organ bath containing 100 ml of buffer solution (in mM: NaH2PO4 0.6, MgSO4 0.6, KCl 4.7, NaHCO3 25, glucose 4.5, NaCl-120, CaCl2 2.4). The solution was saturated with and circulated by a gas mixture containing 95% O2 and 5% CO2. The temperature was kept constant at 30° C. […] The isometric force of the preparations was measured by force transducers, connected to amplifiers, documented by a pen recorder and fed into a computer for evaluation. Force of contraction (FC), threshold stimulus (TS) and the functional refractory period (FRP) were measured at baseline (pre), 20 min after addition of compound, and after washout at the end of the experiment. Threshold stimulus, representing excitability of the tissue, was assessed by varying the voltage applied for electrical stimulation. […]

## COc1ccccc1Nc1nc(C)c(C(=O)N[C@H]2CCC[C@@H]2OCc2ccccc2)s1 [Compound 68, 2-(2-methoxy-phenylamino)-4-methyl-thiazole-5-carboxylic acid (1S,2S)-2-(benzyloxycyclopent-1-yl) amide]
  dFRP Guinea Pig: 0 ms
